Measurements published in US7176219B2, “Salts of quinuclidine derivative” (priority 2005, dated 2007).
Read-outs that look alike come from different tables or passages of the source.

How the values were obtained:
[1] = Evaluation of stability (1): forced degradation test, impurities by LC; details: for Change from Impurity Amt. before Storage (%), Condition 3 / Change from Impurity Amt. before Storage (%), Condition 2: 25° C., 5 days; for Change from Impurity Amt. before Storage (%), Condition 3: NUV (near ultraviolet ray) irradiated; for Change from Impurity Amt. before Storage (%), Condition 3 / Change from Impurity Amt. before Storage (%), Condition 1: tightly closed; for Change from Impurity Amt. before Storage (%), Condition 2: relative humidity 93%, open; for Change from Impurity Amt. before Storage (%), Condition 1: 120° C., 24 hours
Description: A sample after storage was dissolved in 1 mL of MeOH and used as a sample solution. The sample solution was diluted 100 times with MeOH and used as a standard solution. Impurities contained in the sample solution was quantitatively analyzed using the standard solution. In this determination, the apparatus including data processing was operated according to the method and procedure directed in each device. (Apparatus: LC-MSD 1100 series, made by Agilent)

[2] = Evaluation of hygroscopicity (dynamic steam adsorption, weight change); type: physicochemical; details: 25° C., within the range 5–95% relative humidity
Description: A sample (about 5 mg) was placed in a purpose-made quartz holder, and the sample weight at the respective humidity was continuously measured and recorded in the following conditions. The apparatus including data processing was operated according to the method and procedure directed in each device. (Apparatus: dynamic steam adsorption measuring apparatus DVS Advantage, made by SMS)

muscarinic M3 receptors = biological target: T1, muscarinic M3 receptors (Cavia porcellus, UniProt H0W1Z3); assay: Functional affinity estimate for muscarinic M3 receptors in bladders (carbachol-induced intracellular Ca2+ change in bladder smooth muscle cells); type: cell-based, guinea pig; details: for Ki: IC50 converted by Cheng-Prusoff equation based on EC50 of carbachol; for IC50: inhibition of carbachol-induced Ca2+ increase, guinea pig bladder smooth muscle cells, Fura2
T1 construct: Smooth muscle cells were isolated from guinea pig bladders; from tissue; host or cells: smooth muscle cells freshly isolated from guinea pig bladder
T1 sequence (H0W1Z3 1-590): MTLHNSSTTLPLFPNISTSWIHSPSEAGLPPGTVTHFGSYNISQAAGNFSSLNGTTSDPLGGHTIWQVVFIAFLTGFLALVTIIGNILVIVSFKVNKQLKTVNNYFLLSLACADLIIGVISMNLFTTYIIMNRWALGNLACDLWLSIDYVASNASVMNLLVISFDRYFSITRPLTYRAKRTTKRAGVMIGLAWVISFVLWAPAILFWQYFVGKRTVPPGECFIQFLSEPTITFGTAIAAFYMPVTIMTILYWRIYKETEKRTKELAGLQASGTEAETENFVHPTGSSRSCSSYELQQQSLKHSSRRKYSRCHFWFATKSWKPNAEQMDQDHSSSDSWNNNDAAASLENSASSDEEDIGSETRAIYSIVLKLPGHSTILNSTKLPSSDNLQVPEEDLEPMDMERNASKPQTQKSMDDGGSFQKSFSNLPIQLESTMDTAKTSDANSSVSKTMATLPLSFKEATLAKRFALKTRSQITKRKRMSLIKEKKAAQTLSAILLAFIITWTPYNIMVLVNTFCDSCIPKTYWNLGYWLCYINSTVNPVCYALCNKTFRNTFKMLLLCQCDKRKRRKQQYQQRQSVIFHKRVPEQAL
Description: Below, the method is described in brief.
Smooth muscle cells were isolated from guinea pig bladders from which the […] had been removed, loaded with a calcium-sensitive fluorescent dye Fura2 and suspended in phenol red-free Hanks' buffer solution supplemented with 20 mM HEPES (pH 7.4) and 0.1% bovine serum albumin. An aliquot of cell suspension (490 μL) was continuously stirred, kept at 28° C. and monitored for the ratio of fluorescence (500 nm) at 340 nm excitation to that at 380 nm excitation. To each aliquot, 5 μL of test compound and carbachol solutions were serially added with a 2 minute interval, and the peak increase in the ratio over the level just before stimulation was used in data analysis.

[3] = tested on: carbachol-evoked bladder contraction; assay: Inhibitory effects on carbachol-evoked bladder contraction in anesthetized mice; type: in vivo; details: anesthetized female mice, i.v., carbachol 10 μg/kg, intravesical pressure
Description: The method for determination of inhibitory effects of test compounds on bladder contraction is described as follows.
Female mice, weighing 30 to 35 g, were anesthetized with a sub-lethal dose (75 mg/kg, i.v.) of sodium pentobarbital and placed supine on a heating pad to maintain the body temperature. A polyethylene catheter (PE10) was cannulated to the bladder via the urethra and secured by purse-string suture at the external urethral opening. Another catheter was inserted into the femoral vein for injections of drug solutions at a […]. The bladder catheter was connected to a pressure transducer through a three-way stopcock valve. The bladder was emptied by drainage of urine through the catheter, and then distended with about 100 μL of physiological saline, and the intravesical pressure was measured.
After intravesical pressure stabilization, the muscarinic agonist carbachol (10 μg/kg) was administered repeatedly with an interval of 15 minutes or longer. By this means, bladder contractions occurred in a reproducible manner over 2 hours without deterioration of physical conditions. After three responses to carbachol were obtained, a test compound injection was followed by carbachol administration 10 minutes later and this procedure was repeated with increasing doses of the test compound. In four or five mice per test compound, the percent inhibition of means of prior drug responses was obtained and the dose of test compound required for 50% inhibition (ID50) was estimated by the linear regression analysis. Mice showing rhythmic bladder constriction were not used for the data analysis.

| Compound | Change from Impurity Amt. before Storage (%), Condition 3 [1] [%] | Change from Impurity Amt. before Storage (%), Condition 2 [1] [%] | Change from Impurity Amt. before Storage (%), Condition 1 [1] [%] | Impurities before Storage (%) [1] [%] | Weight Change (%) [2] [%] | Ki (muscarinic M3 receptors; read-out: Ki) [nM] | IC50 (muscarinic M3 receptors) [ng/mL] | Change from Impurity Amt. before Storage (%), Condition 3 ([1]; benzenesulfonate) [%] | Change from Impurity Amt. before Storage (%), Condition 2 ([1]; benzenesulfonate) [%] | Change from Impurity Amt. before Storage (%), Condition 1 ([1]; benzenesulfonate) [%] | Impurities before Storage (%) ([1]; benzenesulfonate) | ID50 (dose required for 50% inhibition of bladder contraction) [3] [mg/kg] | IC50 (muscarinic M3 receptors; IC50 (ng/mL)) [nM] | Ki (muscarinic M3 receptors; Ki (nM)) [nM] | Increase of impurities under heat ([1]; Condition 1 of Test Example 2 (stability test to heat)) |
| --- | --- | --- | --- | --- | --- | --- | --- | --- | --- | --- | --- | --- | --- | --- | --- |
| (−)-(3R)-quinuclidin-3-yl(1R)-1-phenyl-1,2,3,4-tetrahydroisoquinoline-2-carboxylate sebacate [Example 9] | −0.8 | 0.2 | −0.3 | 3.7 | <1 | 0.56 ± 0.048 | 2.2 ± 0.33 | – | – | – | – | – | – | – | – |
| O=C(O[C@H]1CN2CCC1CC2)N1CCc2ccccc2[C@H]1c1ccccc1.O=S(=O)(O)c1ccccc1 [Example 5, (−)-(3R)-quinuclidin-3-yl(1R)-1-phenyl-1,2,3,4-tetrahydroisoquinoline-2-carboxylate benzenesulfonate] | – | – | – | – | <1 | – | – | −0.1 | 0.1 | 0.3 | 1.6 | 0.059 | 3.46 | 0.47 ± 0.12 | – |
| Cc1ccc(S(=O)(=O)O)cc1.O=C(O[C@H]1CN2CCC1CC2)N1CCc2ccccc2[C@H]1c1ccccc1 [Example 11, (−)-(3R)-quinuclidin-3-yl(1R)-1-phenyl-1,2,3,4-tetrahydroisoquinoline-2-carboxylate p-toluenesulfonate] | 0.0 | 0.1 | −0.1 | 0.5 | <6 | – | – | – | – | – | – | – | 4.11 | 0.52 ± 0.13 | – |
| Br.O=C(O[C@H]1CN2CCC1CC2)N1CCc2ccccc2[C@H]1c1ccccc1 [Example 7, (−)-(3R)-quinuclidin-3-yl(1R)-1-phenyl-1,2,3,4-tetrahydroisoquinoline-2-carboxylate hydrobromide] | 0.3 | 0.2 | −0.2 | 0.5 | <4 | – | – | – | – | – | – | 0.050 | 4.06 | 0.66 ± 0.28 | – |
| O=C(O[C@H]1CN2CCC1CC2)N1CCc2ccccc2[C@H]1c1ccccc1 [Example 3, (−)-(3R)-quinuclidin-3-yl(1R)-1-phenyl-1,2,3,4-tetrahydroisoquinoline-2-carboxylate (+)-(2S,3S)-di-O-(4-methylbenzoyl)tartrate] | 0.0 | 0.1 | 2.3 | 0.0 | <1 | – | – | – | – | – | – | – | 10.5 | 0.69 ± 0.19 | – |
| O=C(O[C@H]1CN2CCC1CC2)N1CCc2ccccc2[C@H]1c1ccccc1 [Example 2, (−)-(3R)-quinuclidin-3-yl(1R)-1-phenyl-1,2,3,4-tetrahydroisoquinoline-2-carboxylate (+)-(2S,3S)-di-O-benzoyltartrate] | 0.0 | 0.1 | 0.2 | 0.0 | <1 | – | – | – | – | – | – | – | 8.83 | 0.62 ± 0.16 | – |
| CS(=O)(=O)O.O=C(O[C@H]1CN2CCC1CC2)N1CCc2ccccc2[C@H]1c1ccccc1 [Example 13, (−)-(3R)-quinuclidin-3-yl(1R)-1-phenyl-1,2,3,4-tetrahydroisoquinoline-2-carboxylate methanesulfonate] | – | – | – | – | <25 | – | – | – | – | – | – | – | – | – | – |
| CCS(=O)(=O)O.O=C(O[C@H]1CN2CCC1CC2)N1CCc2ccccc2[C@H]1c1ccccc1 [Example 12, (−)-(3R)-quinuclidin-3-yl(1R)-1-phenyl-1,2,3,4-tetrahydroisoquinoline-2-carboxylate ethanesulfonate] | −0.1 | −0.1 | −0.2 | 1.4 | <5 | – | – | – | – | – | – | – | 4.02 | 0.54 ± 0.055 | – |
| (−)-(3R)-quinuclidin-3-yl(1R)-1-phenyl-1,2,3,4-tetrahydroisoquinoline-2-carboxylate (+)-camphor-10-sulfonate [Example 10] | 0.0 | 0.0 | 0.0 | 0.9 | <2 | 0.65 ± 0.12 | 2.6 ± 0.42 | – | – | – | – | – | – | – | – |
| (−)-(3R)-quinuclidin-3-yl(1R)-1-phenyl-1,2,3,4-tetrahydroisoquinoline-2-carboxylate (−)-L-phenylalaninate [Example 4] | −0.3 | −0.3 | 50.8 | 1.9 | <2 | 0.66 ± 0.046 | 2.5 ± 0.044 | – | – | – | – | 0.090 | – | – | increase of impurities |
| O=C(O[C@H]1CN2CCC1CC2)N1CCc2ccccc2[C@H]1c1ccccc1.O=S(=O)(O)c1ccccc1 [Example 5-1, (−)-(3R)-quinuclidin-3-yl(1R)-1-phenyl-1,2,3,4-tetrahydroisoquinoline-2-carboxylate benzenesulfonate] | – | – | – | – | <1 | – | – | −0.2 | 0.0 | −0.1 | 1.8 | – | – | – | – |
| (−)-(3R)-quinuclidin-3-yl(1R)-1-phenyl-1,2,3,4-tetrahydroisoquinoline-2-carboxylate naphthalene-2-sulfonate [Example 8] | 2.6 | 0.2 | 1.3 | 2.0 | <4 | 0.55 ± 0.12 | 2.3 ± 0.87 | – | – | – | – | 0.057 | – | – | – |
| (−)-(3R)-quinuclidin-3-yl(1R)-1-phenyl-1,2,3,4-tetrahydroisoquinoline-2-carboxylate methyl phosphate [Example 14] | – | – | – | – | <11 | – | – | – | – | – | – | – | – | – | – |
